One series deals with T1, human GLP-1R (Homo sapiens, UniProt P43220).
T1 construct: expressed in transfected cells; host or cells: CHO-K1
In words: cAMP accumulation assay (Hithunter cAMP Assay) in CHO-K1 cells stably expressing human GLP-1R. In kind it is cell-based. Conditions: CHO-K1 cells expressing human GLP-1R; in the presence of BSA (1%); 30-minute incubation; relative EC50. As for the experimental part: CHO-K1 cell line stably expressing human GLP-1R was used to detect the cAMP levels using Hithunter cAMP Assay for small molecules platform according manufacturer's instructions (DiscoverX, Cat #90-0075SM2). […] After a 30-minute incubation at 37° C., the cAMP antibody reagent, working solution (mixing 19-parts of lysis buffer, 5-parts of substrate reagent 1, 1-part of substrate reagent 2, and 25-parts of solution D (enzyme donor-labeled cAMP)), and solution A (enzyme […]) were added and incubated at room temperature in the dark. The resulting competitive assays were measured using Spectramax i3x Multi-Mode Detection system (Molecular Devices, USA). A relative EC50 was derived by nonlinear regression analysis by fitting to a 4-parameter logistic model in GraphPad Prism 9 software.

Series [1] is described as follows: Pharmacokinetic testing in crab-eating macaques (cynomolgus monkey), IV and PO. In kind it is in vivo. To be noted: for pharmacokinetics compared to Orforglipron: comparison in words; for AUC(0-t) at 24 h / C0 / clearance / half-life / Cmax / bioavailability: cynomolgus monkey, plasma; for bioavailability: 2 mg/kg vs IV 0.5 mg/kg. Here is the method:
Crab-eating macaques were administered the compound of the present invention via intravenous injection and oral gavage, respectively. Plasma samples were collected at various time points. The drug concentration of the test compound in the plasma tissue of the crab-eating macaques was detected using an LC-MS/MS analytical method, and a pharmacokinetic analysis was conducted.
Solvent for intravenous injection dosing formulation: […] (DMSO)+5% polyethylene glycol (PEG)-15 hydroxystearate+90% o physiological saline.
Preparation steps for the intravenous injection dosing solution: Accurately weigh the test compound and add it to the aforementioned solvent for intravenous injection dosing to prepare a solution with a final concentration of 0.25 mg/mL.
Solvent for oral dosing formulation: 5% dimethyl sulfoxide (DMSO)+5% polyethylene glycol (PEG)-15 hydroxystearate+90% physiological saline.
Preparation steps for the oral dosing solution: Accurately weigh the test compound and add it to the aforementioned solvent for oral dosing to prepare a solution or suspension with a final concentration of 0.4 mg/mL.
Intravenous injection(IV): Administered via […].
Oral (PO): Select an appropriately sized gavage needle and syringe, insert the gavage needle into the esophagus from the base of the tongue, until it is close to the cardia of the stomach, then inject the drug formulation and remove the gavage needle. When using disposable plastic gavage needles, use one per group.
Blood is collected via a cephalic vein or other suitable vein, with approximately 1 mL per sample, anticoagulated with K2-EDTA, and placed on ice after collection. After collection, blood samples are kept on ice and centrifuged to separate the plasma within 1 hour (centrifugation conditions: 2200 g, 10 minutes, 2-8° C.). Plasma samples are stored at −80° C. before analysis and the remaining plasma samples after analysis are continued to be stored at −80° C. • 4. Sample Detection Plasma concentration detection: The developed LC-MS/MS method is used to detect the compound in the plasma in this experiment. • 5. Data Analysis A non-compartmental model is used to analyze the blood concentration-time data using Phoenix® WinNonlin® (Version 7.0, Pharsight, Mountain View, CA).

T1 sequence (P43220 24-463): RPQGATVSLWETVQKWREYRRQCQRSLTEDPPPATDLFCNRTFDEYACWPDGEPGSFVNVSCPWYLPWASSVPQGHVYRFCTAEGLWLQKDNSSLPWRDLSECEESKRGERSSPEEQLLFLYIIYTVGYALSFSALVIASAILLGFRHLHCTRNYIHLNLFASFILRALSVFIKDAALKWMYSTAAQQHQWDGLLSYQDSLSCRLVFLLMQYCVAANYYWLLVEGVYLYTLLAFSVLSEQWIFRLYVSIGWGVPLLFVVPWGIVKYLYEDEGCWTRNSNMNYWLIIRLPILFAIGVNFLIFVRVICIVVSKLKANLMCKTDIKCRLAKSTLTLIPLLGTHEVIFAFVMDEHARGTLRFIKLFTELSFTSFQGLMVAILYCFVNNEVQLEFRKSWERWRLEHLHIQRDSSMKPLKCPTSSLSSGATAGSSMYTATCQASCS

On to `Cc1cc(-n2nc3c(c2-n2ccn(-c4ccc5c(cnn5C)c4F)c2=O)[C@H](C)N(C(=O)c2cc4cc(C5CCOCC5)ccc4n2[C@@]2(c4nnn[nH]4)[C@@H]4CN([C@H]5CC[C@H](O)CC5)C[C@@H]42)CC3)cc(C)c1F` (single isomer, unassigned) [Compound C-17], for which the EC50 at human GLP-1R came out at 0.2 nM.
As for `Cc1cc(-n2nc3c(c2-n2ccn(-c4ccc5c(cnn5C)c4F)c2=O)[C@H](C)N(C(=O)c2cc4cc(C5CCOCC5)ccc4n2[C@@]2(c4nnn[nH]4)[C@@H]4CN([C@H]5CC[C@@H](O)CC5)C[C@@H]42)CC3)cc(C)c1F` (single isomer, unassigned) [Compound C-18], the 50% effective concentration (EC50) on human GLP-1R came to 0.6 nM.
Take `Cc1cc(-n2nc3c(c2-n2ccn(-c4ccc5c(cnn5C)c4F)c2=O)[C@H](C)N(C(=O)c2cc4cc([C@H]5CCOC(C)(C)C5)ccc4n2[C@@]2(c4noc(=O)[nH]4)[C@@H]4CN(c5ncccn5)C[C@@H]42)CC3)cc(C)c1F` [Compound C-12, 3-[(1R,5S,6S)-6-{5-[(4S)-2,2-dimethyloxan-4-yl]-2-[(4S)-3-[3-(4-fluoro-1-methyl-1H-indazol-5-yl)-2-oxo-2,3-dihydro-1H-imidazol-1-yl]-2-(4-fluoro-3,5-dimethylphenyl)-4-methyl-2H,4H,5H,6H,7H-pyrazolo[4,3-c]pyridine-5-carbonyl]-1H-indol-1-yl}-3-(pyrimidin-2-yl)-3-azabicyclo[3.1.0]hexan-6-yl]-4,5-dihydro-1,2,4-oxadiazol-5-one]: the “pharmacokinetics compared to Orforglipron” value in series [1] was “longer half-life, higher exposure, lower clearance rate, and greater bioavailability”. In series [1] (IV, 0.5 mg/kg), the exposure AUC(0-t) at 24 h came out at 6290 ng·h/mL, the C0 stood at 6730 ng/mL, the clearance is 1.3 mL/min/kg and the half-life is 378 min. In series [1] (PO, 2 mg/kg), this compound gave an AUC(0-t) at 24 h of 6160 ng·h/mL, a Cmax of 514 ng/mL and a half-life of 354 min. The same compound displayed a bioavailability in series [1] (PO) of 24.5%.
As for `Cc1cc(-n2nc3c(c2-n2ccn(-c4ccc5c(cnn5C)c4F)c2=O)[C@H](C)N(C(=O)c2cc4cc([C@H]5CCOC(C)(C)C5)ccc4n2[C@@]2(c4noc(=O)[nH]4)[C@@H]4CN(c5ccccn5)C[C@@H]42)CC3)cc(C)c1F` [Compound C-22, 3-[(1R,5S,6S)-6-{5-[(4S)-2,2-dimethyloxan-4-yl]-2-[(4S)-3-[3-(4-fluoro-1-methyl-1H-indazol-5-yl)-2-oxo-2,3-dihydro-1H-imidazol-1-yl]-2-(4-fluoro-3,5-dimethylphenyl)-4-methyl-2H,4H,5H,6H,7H-pyrazolo[4,3-c]pyridine-5-carbonyl]-1H-indol-1-yl}-3-(pyridin-2-yl)-3-azabicyclo[3.1.0]hexan-6-yl]-4,5-dihydro-1,2,4-oxadiazol-5-one], in series [1], the “pharmacokinetics compared to Orforglipron” value is “longer half-life, higher exposure, lower clearance rate, and greater bioavailability”. In series [1] (IV, 0.5 mg/kg), the AUC(0-t) at 24 h stood at 7560 ng·h/mL, the C0 was 3810 ng/mL, the clearance turned out to be 0.9 mL/min/kg and the half-life is 618 min. Also, in series [1] (PO, 2 mg/kg), the AUC(0-t) at 24 h stood at 3590 ng·h/mL, the peak concentration (Cmax) came out at 236 ng/mL and the half-life was 816 min. This compound also showed a bioavailability in series [1] (PO) of 11.9%.
Consider `Cc1cc(-n2nc3c(c2-n2ccn(-c4ccc5c(cnn5C)c4F)c2=O)[C@H](C)N(C(=O)c2cc4cc([C@H]5CCOC(C)(C)C5)ccc4n2[C@@]2(c4noc(=O)[nH]4)C[C@@H]2C)CC3)cc(C)c1F` [Orforglipron, reference compound], for which, in series [1] (IV, 0.5 mg/kg), the AUC(0-t) at 24 h is 1780 ng·h/mL, the C0 came to 1170 ng/mL, the clearance stood at 4.6 mL/min/kg and the half-life was 204 min. In series [1] (PO, 2 mg/kg), this compound gave an AUC(0-t) at 24 h of 453 ng·h/mL, a Cmax of 37.5 ng/mL and a half-life of 372 min. This compound also came in with a bioavailability in series [1] (PO) of 6.3%.

The values above are taken from US20260285858A1, “GLP-1 RECEPTOR TARGETING COMPOUNDS AND USES THEREOF” (FORTVITA BIOLOGICS INC., priority 2023, published 2026).
